# Like-named read-outs stand apart in the source and are kept apart here.
# What was measured:
# [1] = tested on: PDGF-stimulated PDGFR tyrosine phosphorylation; test: Inhibition of PDGF-stimulated PDGFR tyrosine phosphorylation in NIH 3T3 cells (anti-phosphotyrosine Western blot); type: cell-based
# Method: Starved NIH 3T3 cells are pretreated with various growth factor binding agents (0-100 μM) for 5 min before stimulation with PDGF (10 ng/mL) for 10 min. The cells are then harvested and lysed, and the proteins from the lysates separated by SDS-PAGE and immunoblotted with an anti-phosphotyrosine antibody (4G10: Upstate Biotechnology, Lake Placid, N.Y.). The phosphotyrosine PDGF receptor bands are scanned, and the concentrations of growth factor binding molecules that inhibited the ability of PDGF to stimulate PDGFR tyrosine phosphorylation by 50% are determined.
# (§1) Starved NIII 3T3 cells (PDGF-BB and PDGF-AA), NIH 3T3 cells overexpressing either EGFR (EGF) or Flk-1 (VEGF) are pre-treated with the indicated concentrations of GFB-111 for 5 minutes before 10 minutes of stimulation with PDGF-BB (10 ng/ml), PDGF-AA (10 ng/ml), EGF (100 ng/ml) and VEGF (50 ng/ml). Cell lysates are run on SDS-PAGE gels, then transferred to nitrocellulose and Western blotted with anti-phosphotyrosine (4G 10) or anti-phosphorylated Erk1/Erk2 (New England Biolabs).
# A novel series of protein surface binding agents are prepared that bind PDGF and disrupt its signaling function. The molecules are composed of a central calix[4] arene scaffold to which is attached four peptide loop domains (FIG. 1). The peptide loop component is based on a cyclic hexapeptide in which two residues are replaced by a 3-aminomethylbenzoate dipeptide mimetic containing a 5-amino substituent for attachment to the scaffold. The resulting molecules (as shown in Table 1) contain a functionalized and variable surface approximately 500 Å^2 in area. Several peptide loop sequences are synthesized (Table 1) to provide molecular surfaces with negatively and positively charged as well as hydrophobic regions designed to bind to complementary areas on the target growth factor. To identify PDGF binding molecules from this library, a cell-based screening assay is developed with NIH 3T3 cells to detect molecules capable of blocking PDGF-BB-induced tyrosine autophosphorylation of the PDGF receptor. The ability of the identified molecules to bind PDGF-BB and inhibit interaction with its receptor is then confirmed biochemically. Starved NIH 3T3 cells are pretreated for 5 min with the synthetic molecules prior to stimulation with PDGF for 10 min. The effects of the molecules on PDGF-stimulated receptor tyrosine phosphorylation are determined by the antiphosphotyrosine Western blotting as described in Table 1. […] GFB-111 has four-fold symmetry containing 4 identical peptide loops with negative and hydrophobic residues, GlyAspGlyTyr (GDGY) (SEQ ID NO. 6), that are designed to be complementary to the PDGF surface involved in binding to PDGFR. The area of PDGF-BB that binds PDGFR is composed primarily of positive and hydrophobic residues.
# Starved NIH 3T3 cells are pretreated with the various GFBs (0-100 μM) for 5 min. prior to stimulation with PDGF (10 ng/ml) for 10 min. The cells are then harvested lysed and the proteins from the lysates are separated by SDS-PAGE and immunoblotted with an anti-phosphotyrosine antibody (4G10, Upstate Biotechnology, Lake Placid, N.Y.). The phosphotyrosine PDGF receptor bands are scanned and the concentrations of GFBs that inhibit the ability of PDGF to stimulate PDGFR tyrosine phosphorylation by 50% are determined. Data for each compound is representative of at least two independent experiments. FIG. 1 illustrates the structure of growth factor binders. GFBs are synthesized as described by Park, H. D. et al., Protein surface recognition by synthetic receptors: A route to novel sub-micromolar inhibitors for chymotrypsin. J. Am. Chem. Soc. 121, 8-13 (1999); and Hamuro, Y. et al., A calixarene with four peptide loops: An antibody mimic for recognition of protein surfaces. Angew. Chemie Int. Ed. Engl. 36, 2680-2683 (1997), each herein incorporated by reference in its respective entirety.
# [2] = tested on: PDGF-stimulated Erk1/Erk2 activation; test: Inhibition of PDGF-stimulated activation of MAPK Erk1/Erk2 (p44/p42) in NIH 3T3 cells; type: cell-based; conditions: for Inhibition of PDGF-stimulated MAPKinase activation: FIG. 13
# Method: as §1
# In other experiments, starved NIH 3T3 cells (PDGF-AA, PDGF-BB, aFGF, bFGF), NIH 3T3 cells overexpressing EGFR. IGF-1R or Flk-1 and the human breast carcinoma SkBr3 that overexpresses ErbB2 (HRGβ) are pretreated with GFB-111 (100 μM) for 5 min before 10 min stimulation with the indicated growth factors at the concentrations shown above and aFGF (10 ng/ml), bFGF (50 ng/ml), IGF-1 (50 ng/ml) and HRGβ (10 ng/ml). Cell lysates are then immunoblotted with anti-phospho Erk1/Erk2 as described above.
# [3] = biological target: T1, PDGF-BB (Homo sapiens, UniProt P01127); test: Binding to PDGF-BB by native PAGE / SDS-PAGE gel electrophoresis
# T1 construct: host or cells: NIH 3T3 cells carry the receptor
# T1 sequence (P01127 82-190 limits assumed): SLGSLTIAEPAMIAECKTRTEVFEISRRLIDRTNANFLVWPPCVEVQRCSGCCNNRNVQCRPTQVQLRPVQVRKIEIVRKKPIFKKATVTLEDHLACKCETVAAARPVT
# Method: GFB-111 (50 μM) is incubated with buffer A (PBS 0.5% BSA) or PDGF-BB (1, 3 and 4µM in buffer A) at room temperature for 10 minutes. The mixtures are then loaded onto a native 4% PAGE. The gel is then stained with silver nitrate. Duplicate lanes are run in the same gel but are not stained. Bands corresponding to the boxed area are cut out of the lanes of the gel that is not stained, denatured with SDS-PAGE loading buffer (Tris 100 mM pH 6.8, 15% Glycerol, 3% SDS, 7.5% b-mercaptoethanol, 0.05% bromophenol blue), loaded onto a 4% SDS-PAGE gel and silver stained.
# The structure activity relationship results in Table 1 are consistent with GFB-111 being a PDGF-BB binding molecule. […] PDGF to its receptor on NIH 3T3 cells is determined by gel electrophoresis by mixing GFB-111 with PDGF-BB. […] FIG. 2B illustrates that the GFB-111 standard (lane 5) as well as the GFB-111 band cut out of FIG. 2A gel (lane 1) migrates on SDS-PAGE as a single band that elutes faster than the dye front. Their separation on SDS-PAGE (lane 2) is confirmed by mixing PDGF-BB standard (lane 4) and GFB-111 standard (lane 5).
# GFB-111 is incubated with increasing concentrations of PDGF-BB and the mixtures are then loaded onto native PAGE. […]
# [4] = NIH 3T3, PDGF stimulated, head p42/Erk2 (p42 for GFB-132 to 137), read-out: (IC50) Inhibition p42/Erk2
Compound,Concentration giving complete block of PDGF-BB stimulated receptor tyrosine phosphorylation [1] [µM],IC50 ([1]; read-out: IC50 of inhibition of PDGF-BB stimulation of PDGF receptor tyrosine autophosphorylation) [nM],Inhibition of PDGF-stimulated MAPKinase activation [2],"IC50 ([2]; NIH 3T3, FIG. 3A, read-out: IC50 PDGF-dependent activation of Erk1) [nM]","IC50 ([2]; NIH 3T3, FIG. 3A, read-out: IC50 PDGF-dependent activation of Erk2) [nM]","IC50 [2, 4] [nM]",Binding to PDGF-BB (complex on native PAGE) [3],"IC50 ([1]; 5 min pretreatment, PDGF 10 ng/ml 10 min, read-out: (IC50) Inhibition PDGFR-Y-P) [nM]"
CCCCOc1c2cc(C(=O)Nc3cc4cc(c3)C(=O)NCC(=O)N[C@@H](CC(=O)O)C(=O)NCC(=O)N[C@@H](Cc3ccc(O)cc3)C(=O)NC4)cc1Cc1cc(C(=O)Nc3cc4cc(c3)C(=O)NCC(=O)N[C@@H](CC(=O)O)C(=O)NCC(=O)N[C@@H](Cc3ccc(O)cc3)C(=O)NC4)cc(c1OCCCC)Cc1cc(C(=O)Nc3cc4cc(c3)C(=O)NCC(=O)N[C@@H](CC(=O)O)C(=O)NCC(=O)N[C@@H](Cc3ccc(O)cc3)C(=O)NC4)cc(c1OCCCC)Cc1cc(C(=O)Nc3cc4cc(c3)C(=O)NCC(=O)N[C@@H](CC(=O)O)C(=O)NCC(=O)N[C@@H](Cc3ccc(O)cc3)C(=O)NC4)cc(c1OCCCC)C2 [GFB-111],3,250,inhibits,800,1200,2600,does indeed contain both PDGF-BB and GFB-111,–
GKGK [GFB-116],–,–,does not,–,–,28000,does not bind,40000

# — patent publication US8361970B2, “Growth factor binding molecules” (University of South Florida, priority 2000, dated 2013)
